# Data from patent publication US8420312B2, “Genes associated with canine osteoarthritis and related methods and compositions” (Nestec S.A., priority 2004, dated 2013).
# Columns and labels:
# Type in all cases: cell-based, canine
# [1] = tested on: OA-Associated Genes; test: Microarray analysis of chondrocyte beads treated with 1,25 D3 or 24,25 D3; details: summary statement, Tables 19-20
# From the text: Microarray probes were generated by PCR-amplifying clones isolated from differential display. Probes were spotted in duplicate onto poly-L-lysine coated slides using a GMS417 (Affymetrix) arrayer. Osteoarthritic cartilage samples were obtained from the femoral heads of clinically diagnosed canines undergoing total […] replacement. RNA was hybridized to the slides using the HC ExpressArray ([…]) kit and visualized using a GMS418 (Affymetrix) scanner. The […] (Biodiscovery) program was used for spot finding and subsequent data analysis was performed using GeneSight (Biodiscovery). Expression levels are represented after background subtraction, log(base 2) transformation and global slide signal normalization. […] Scanned images representing RNA transcripts bound to specific clones were quantified and checked for spot quality control using […] analysis software (BioDiscovery). Quantified images were analyzed using […] analysis software (BioDiscovery). The analysis represented subtraction of background surrounding the spots, averaging spot replicates, deletion of clone information representing clone hybridization signals not greater than 200 above background on all samples, log (base 2) transformation and global normalization of each slide (values expressed as percent of average spot intensity). […]
# [2] = tested on: OA-Associated Genes; test: Microarray analysis of chondrocyte beads treated with glucosamine; details: summary statement, Tables 13-18
# From the text: (§1) Microarray probes were generated by PCR-amplifying clones isolated from differential display. Probes were spotted in duplicate onto poly-L-lysine coated slides using a GMS417 (Affymetrix) arrayer. Osteoarthritic cartilage samples were obtained from the femoral heads of clinically diagnosed canines undergoing total […] replacement. RNA was hybridized to the slides using the HC ExpressArray (Digene) kit and visualized using a GMS418 (Affymetrix) scanner. The Imagene (Biodiscovery) program was used for spot finding and subsequent data analysis was performed using GeneSight (Biodiscovery). Expression levels are represented after background subtraction, log(base 2) transformation and global slide signal normalization. […]
# (§2) Scanned images representing RNA transcripts bound to specific clones were quantified and checked for spot quality control using Imagene analysis software (BioDiscovery). Quantified images were analyzed using Genesight analysis software (BioDiscovery). The analysis represented subtraction of background surrounding the spots, averaging spot replicates, deletion of clone information representing clone hybridization signals not greater than 200 above background on all samples, log (base 2) transformation and global normalization of each slide (values expressed as percent of average spot intensity). […]
# [3] = tested on: OA-Associated Genes; test: Microarray analysis of chondrocytes enriched with EPA or AA; details: summary statement, Tables 21-23
# From the text: as §1, §2
# [4] = tested on: OA-Associated Genes; test: Microarray analysis of chondrocyte beads treated with chondroitin sulfate; details: summary statement, Tables 7-12
# From the text: as §1, §2
compound,measurement,setting,value
"C=C1/C(=C\C=C2/CCC[C@]3(C)[C@@H]([C@H](C)CCCC(C)(C)O)CC[C@@H]23)C[C@@H](O)C[C@@H]1O [1α,25-dihydroxyvitamin D3]",effect on expression of OA-related genes,[1],affected the expression of OA-related genes
"C=C1CC[C@H](O)C/C1=C/C=C1\CCC[C@]2(C)[C@@H]([C@H](C)CC[C@@H](O)C(C)(C)O)CC[C@@H]12 [24R,25-dihydroxyvitamin D3]",effect on expression of OA-related genes,[1],affected the expression of OA-related genes
"N[C@H]1C(O)O[C@H](CO)[C@@H](O)[C@@H]1O (some centres unmarked) [Glucosamine, glucosamine]",effect on OA-associated genes,[2],have an effect on a variety of OA-associated genes
"CCCCC/C=C\C/C=C\C/C=C\C/C=C\CCCC(=O)O [arachidonic acid (AA), arachidonic acid]",effect on OA-related genes,[3],affect OA-related genes
chondroitin sulfate,effect on OA-associated genes,[4],have an effect on a wide variety of OA-associated genes
